Counter-ions that a name gives are not always drawn.
How the values were obtained:
RelB = biological target: T1, RelB (Homo sapiens, UniProt Q01201); assay: TransAM NF-κB Family DNA Binding ELISA, RelB; details: at 5 uM
T1 sequence (Q01201 1-579): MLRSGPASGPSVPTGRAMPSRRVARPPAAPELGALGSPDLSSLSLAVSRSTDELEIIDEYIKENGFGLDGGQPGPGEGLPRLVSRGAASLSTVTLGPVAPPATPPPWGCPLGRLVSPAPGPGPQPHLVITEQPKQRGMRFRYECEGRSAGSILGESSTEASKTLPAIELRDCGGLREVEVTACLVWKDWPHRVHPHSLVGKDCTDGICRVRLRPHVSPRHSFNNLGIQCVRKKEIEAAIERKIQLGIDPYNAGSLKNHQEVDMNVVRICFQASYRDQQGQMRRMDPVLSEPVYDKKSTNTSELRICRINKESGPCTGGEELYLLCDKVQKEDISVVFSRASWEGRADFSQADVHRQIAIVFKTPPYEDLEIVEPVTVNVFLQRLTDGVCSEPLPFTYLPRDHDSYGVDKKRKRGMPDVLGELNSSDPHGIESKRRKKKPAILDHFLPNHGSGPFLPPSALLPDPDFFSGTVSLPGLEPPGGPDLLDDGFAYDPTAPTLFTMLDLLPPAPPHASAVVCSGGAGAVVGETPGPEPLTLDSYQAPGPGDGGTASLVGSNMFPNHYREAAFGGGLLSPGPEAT
T1 sequence (Q00653 1-454 partner limits assumed): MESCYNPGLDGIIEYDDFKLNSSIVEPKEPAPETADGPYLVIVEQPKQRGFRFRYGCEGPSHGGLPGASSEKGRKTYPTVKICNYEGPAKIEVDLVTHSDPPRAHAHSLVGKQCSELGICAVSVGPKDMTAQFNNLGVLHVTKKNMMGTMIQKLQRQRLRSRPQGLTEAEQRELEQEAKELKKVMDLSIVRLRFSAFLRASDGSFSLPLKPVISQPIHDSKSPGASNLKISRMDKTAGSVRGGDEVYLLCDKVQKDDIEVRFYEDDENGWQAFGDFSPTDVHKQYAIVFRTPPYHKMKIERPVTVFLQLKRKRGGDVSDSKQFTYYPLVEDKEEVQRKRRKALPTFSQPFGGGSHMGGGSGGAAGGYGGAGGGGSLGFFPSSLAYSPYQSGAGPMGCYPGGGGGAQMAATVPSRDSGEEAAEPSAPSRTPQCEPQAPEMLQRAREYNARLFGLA

[1] = test system: IL-6 release from RAW264.7 cells; assay: IL-6 release from LPS stimulated RAW264.7 cells; type: cell-based, mouse
Experimental: Specifically, A and B show the effects of the compound of Example 1 on soluble PGE2 and Il-6 secretion from RAW264.7 cells stimulated by 1 μg/mL of LPS. The cells were treated with the indicated concentrations of the compound of Example 1 for 2 hours, and then LPS was added and incubation continued for 4 hours. […]

NF-κB [2] = assay: 293-cell pNF-κB-luc reporter assay, TNF-α induced; type: cell-based; details: HEK293 cells, NF-κB driven luciferase expression, read-out: 293/NFkB-luc EC50
Experimental: (§1) Inhibition of NF-κB in cells by the compound of Example 1. Two reporter cell assays were used to determine the ability of the compound of Example 1 to inhibit NE-KB driven transcription. The first assay was a 293-cell based assay with a stably integrated pNF-κB-luc reporter plasmid containing 3 NF-κB promoter elements. The second assay was a 293-cell based assay with a stably integrated pTRH1-NF-κB-dscGFP reporter containing 4 NF-κB promoter elements. Cells were treated with 0, 0.2, 1, 10, 20 and 40 μM of the compound of Example 1 for 2 hours then were induced with 20 ng/ml TNF-α for 18 hours. Following the induction, luminescence or fluorescence was quantified using a Beckman-Coulter 2300 plate reader. […] These values represent the median value generated from three independent experiments±the standard error. As a control, 0.5% DMSO treated and untreated cells were compared to verify that the Example 1 carrier had no effect on the expression of luciferase or in the readout of the assay. There was a slight decrease in the output from the assay in the DMSO treated population although it was not statistically significant. As a result of the controls, the decrease in activity in the drug treated samples was compared to the DMSO control sample.

c-Rel = biological target: T2, c-Rel (Homo sapiens, UniProt Q04864); assay: TransAM NF-κB Family DNA Binding ELISA, c-Rel; details: at 5 uM
T2 sequence (Q04864 2-619 limits assumed): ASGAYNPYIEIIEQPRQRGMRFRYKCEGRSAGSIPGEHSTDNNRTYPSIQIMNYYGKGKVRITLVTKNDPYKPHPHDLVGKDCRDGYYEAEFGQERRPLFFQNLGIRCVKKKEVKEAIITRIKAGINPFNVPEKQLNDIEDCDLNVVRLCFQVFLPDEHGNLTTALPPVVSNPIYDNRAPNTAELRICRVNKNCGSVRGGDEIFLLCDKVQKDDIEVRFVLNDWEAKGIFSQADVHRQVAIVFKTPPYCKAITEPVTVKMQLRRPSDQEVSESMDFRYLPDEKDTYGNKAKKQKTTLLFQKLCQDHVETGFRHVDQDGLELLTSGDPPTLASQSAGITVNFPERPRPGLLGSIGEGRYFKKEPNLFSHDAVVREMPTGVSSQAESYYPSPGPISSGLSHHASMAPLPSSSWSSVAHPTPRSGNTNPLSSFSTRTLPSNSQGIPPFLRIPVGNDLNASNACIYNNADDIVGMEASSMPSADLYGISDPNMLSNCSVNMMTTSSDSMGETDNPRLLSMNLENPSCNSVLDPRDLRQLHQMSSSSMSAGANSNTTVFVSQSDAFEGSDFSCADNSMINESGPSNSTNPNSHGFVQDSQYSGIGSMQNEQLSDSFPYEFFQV
Experimental: (§2) Treated samples were then transferred to 30 μL Complete Binding Buffer (with DTT) in microplate wells pre-coated with the NF-κB consensus oligonucleotide. […] The plate was incubated for 1 hour at room temperature with gentle shaking and then washed 3 times with 200 μL 1× Wash Buffer. NF-κB p65, p50, p52, RelB, or c-Rel subunits bound to the plate were detected with 100 μL of the primary antibody (diluted 1:1000 in 1× Antibody Buffer) specific for that subunit. The plate was incubated for 1 hour at room temperature and then washed 3 times with 200 μL 1× Wash Buffer. Next, 100 μL of a HRP conjugated goat anti-rabbit antibody (diluted 1:1,000 in 1× Antibody Buffer) was added to each well. The plate was incubated for 1 hour at room temperature and then washed 4 times with 200 μL 1× Wash Buffer. 100 μL of room temperature Developing Solution was added to each well. The reaction was allowed to develop for 2-10 minutes until a medium dark blue color developed (depending on the subunit activity in the lot of extract or lot of recombinant protein used) and then the reaction was stopped with 100 μL Stop Solution yielding a yellow color. Absorbance was recorded using a Becton-Dickinson DTX 880 Multimode Detector at 450 nm with a reference wavelength subtracted at 620 nm.

p52 = biological target: T3, p52 (Homo sapiens, UniProt Q00653); assay: TransAM NF-κB Family DNA Binding ELISA, p52; details: for IC50: p52 binding IC50 (uM), cells without % sign
T3 sequence (Q00653 1-454 limits assumed): T1 sequence (Q00653 1-454 partner limits assumed)
Experimental: as §2

p50 = biological target: T4, p50 (Homo sapiens, UniProt P19838); assay: TransAM NF-κB Family DNA Binding ELISA, p50; details: p50 binding IC50 (uM), cells without % sign
T4 sequence (P19838 1-433 limits assumed): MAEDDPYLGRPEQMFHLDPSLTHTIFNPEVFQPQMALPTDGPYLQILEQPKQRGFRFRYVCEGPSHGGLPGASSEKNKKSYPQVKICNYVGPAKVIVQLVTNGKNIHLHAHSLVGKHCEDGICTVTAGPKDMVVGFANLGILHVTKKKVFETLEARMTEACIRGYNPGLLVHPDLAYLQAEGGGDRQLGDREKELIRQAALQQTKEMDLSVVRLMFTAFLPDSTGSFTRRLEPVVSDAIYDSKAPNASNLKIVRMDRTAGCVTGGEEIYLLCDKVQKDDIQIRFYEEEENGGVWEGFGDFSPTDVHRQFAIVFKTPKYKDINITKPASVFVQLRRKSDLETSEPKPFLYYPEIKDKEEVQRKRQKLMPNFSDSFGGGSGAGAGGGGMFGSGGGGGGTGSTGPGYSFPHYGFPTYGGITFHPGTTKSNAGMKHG
Experimental: as §2

p65 (RelA) = p65 (RelA) (Homo sapiens, UniProt Q04206); assay: TransAM NF-κB Family DNA Binding ELISA, p65; details: p65 binding IC50 (uM), binding to NF-κB sites
Chain of p65 (RelA) (Q04206 whole entry): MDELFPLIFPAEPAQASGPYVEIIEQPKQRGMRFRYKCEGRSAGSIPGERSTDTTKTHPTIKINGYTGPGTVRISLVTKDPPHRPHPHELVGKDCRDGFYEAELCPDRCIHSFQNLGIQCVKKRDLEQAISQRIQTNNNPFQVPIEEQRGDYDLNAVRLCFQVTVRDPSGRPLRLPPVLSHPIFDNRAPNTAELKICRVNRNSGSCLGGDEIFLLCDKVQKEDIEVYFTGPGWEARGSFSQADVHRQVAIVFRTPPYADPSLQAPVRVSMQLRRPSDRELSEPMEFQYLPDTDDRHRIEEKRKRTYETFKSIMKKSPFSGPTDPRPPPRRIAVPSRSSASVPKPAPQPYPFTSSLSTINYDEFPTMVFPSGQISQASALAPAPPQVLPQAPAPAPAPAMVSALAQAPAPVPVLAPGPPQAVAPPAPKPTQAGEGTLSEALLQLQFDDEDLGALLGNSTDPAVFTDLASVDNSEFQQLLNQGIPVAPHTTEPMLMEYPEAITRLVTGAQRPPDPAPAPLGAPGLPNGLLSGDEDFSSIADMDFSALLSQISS
Experimental: as §2

NF-κB [3] = assay: 293-cell pTRH1-NF-κB-dscGFP reporter assay, TNF-α induced; type: cell-based; details: NF-κB driven GFP expression, read-out: NF-kB/293/GFP EC50
Experimental: as §1

[4] = RAW 264.7 cells, trifluoroacetate
[5] = Mus musculus, RAW264.7, RAW 264.7 cells
[6] = Homo sapiens, HEK293, HEK293 cells

Row | SMILES | RelB binding % inhibit. at 5 uM (RelB) [%] | EC50 [1, 4] [µM] | EC50 (NF-κB [2]; trifluoroacetate) [µM] | c-Rel binding % inhibit. at 5 uM (c-Rel) [%] | p52 binding % inhibit. at 5 uM (p52) [%] | IC50 (p50) [µM] | IC50 (p65 (RelA)) [µM] | EC50 [1, 5] [µM] | EC50 (NF-κB [3]; [6]) [µM] | EC50 (NF-κB [2]) [µM] | IC50 (p52) [µM] | EC50 (NF-κB [3]; HEK293 cells, trifluoroacetate) [µM] | EC50 ([1]; RAW 264.7 cells, tosylate) [µM] | EC50 (NF-κB [2]; tosylate) [µM]
1 | O=C(NC1=CC(=O)C2OC2C1O)c1ncccc1O.O=C(O)C(F)(F)F (racemic) [Example 13, (±)-3-hydroxy-N-(2-hydroxy-5-oxo-7-oxabicyclo[4.1.0]hept-3-en-3-yl)picolinamide trifluoroacetate] | 10 | 1.4 | 9.2 | 15 | 0 | – | – | – | – | – | – | – | – | –
2 | O=C(NC1=CC(=O)C2OC2C1O)c1ccc(C(F)(F)F)nc1O (racemic) [Example 23, (±)-2-hydroxy-N-(2-hydroxy-5-oxo-7-oxa-bicyclo[4.1.0]hept-3-en-3-yl)-6-trifluoromethyl-nicotinamide] | – | – | – | – | – | – | 6.4 | 24.8 | > 40 | > 40 | – | – | – | –
3 | COc1cccnc1C(=O)NC1=CC(=O)C2OC2C1O (racemic) [Example 22, (±)-3-methoxy-pyridine-2-carboxylic acid (2-hydroxy-5-oxo-7-oxa-bicyclo[4.1.0]hept-3-en-3-yl)-amide trifluoroacetate] | – | > 34 | > 34 | – | – | – | 13.2 | – | – | – | – | – | – | –
4 | COc1c(C(=O)NC2=CC(=O)C3OC3C2O)ccc2cccnc12 (racemic) [Example 33, (±)-N-(2-hydroxy-5-oxo-7-oxabicyclo[4.1.0]hept-3-en-3-yl)-8-methoxyquinoline-7-carboxamide trifluoroacetate] | – | 0.26 | 0.53 | – | – | > 378 | 4.8 | – | – | – | > 378 | 2 | – | –
5 | O=C(NC1=CC(=O)C2OC2C1=O)c1ccncc1O (racemic) [Example 34, (±)-N-(2,5-dioxo-7-oxabicyclo[4.1.0]hept-3-en-3-yl)-3-hydroxyisonicotinamide] | – | – | – | – | – | 90 | 12 | 42 | 39 | > 51 | 96 | – | – | –
6 | Cc1ccc(S(=O)(=O)O)cc1.O=C(NC1=CC(=O)C2OC2C1O)c1ncccc1O (racemic) [Example 14, (±)-3-hydroxy-N-(2-hydroxy-5-oxo-7-oxabicyclo[4.1.0]hept-3-en-3-yl)picolinamide tosylate] | 9 | – | – | 1 | 6 | – | – | – | – | – | – | – | 3.3 | 23
7 | Cc1ncc(C(=O)NC2=CC(=O)C3OC3C2O)c(O)n1 (racemic) [Example 24, (±)-4-hydroxy-2-methyl-pyrimidine-5-carboxylic acid (2-hydroxy-5-oxo-7-oxa-bicyclo[4.1.0]hept-3-en-3-yl)-amide] | – | – | – | – | – | – | 2.3 | 27.1 | > 48 | > 48 | – | – | – | –

More lines, now with the values ahead:

Row | RelB binding % inhibit. at 5 uM (RelB) [%] | EC50 [1, 4] [µM] | EC50 (NF-κB [2]; trifluoroacetate) [µM] | c-Rel binding % inhibit. at 5 uM (c-Rel) [%] | p52 binding % inhibit. at 5 uM (p52) [%] | IC50 (p50) [µM] | IC50 (p65 (RelA)) [µM] | EC50 [1, 5] [µM] | EC50 (NF-κB [3]; [6]) [µM] | EC50 (NF-κB [2]) [µM] | IC50 (p52) [µM] | EC50 (NF-κB [3]; HEK293 cells, trifluoroacetate) [µM] | EC50 ([1]; RAW 264.7 cells, tosylate) [µM] | EC50 (NF-κB [2]; tosylate) [µM] | SMILES
8 | – | – | – | – | – | > 608 | 36 | 0.76 | 4.3 | 2.7 | > 608 | – | – | – | COc1ncccc1C(=O)NC1=CC(=O)C2OC2C1=O (racemic) [Example 30, (±)-N-(2,5-Dioxo-7-oxa-bicyclo[4.1.0]hept-3-en-3-yl)-2-methoxy-nicotinamide]
9 | – | – | – | – | – | > 514 | 30 | 0.24 | 3 | 3.4 | > 514 | – | – | – | COc1c(C(=O)NC2=CC(=O)C3OC3C2=O)ccc2cccnc12 (racemic) [Example 32, (±)-N-(2,5-diose-7-oxabicyclo[4.1.0]hept-3-en-3-yl)-8-methoxyquinoline-7-carboxamide]
10 | – | – | – | – | – | 28 | 38 | 1 | 5.6 | 3.9 | 21 | – | – | – | COc1cc2ccccc2nc1C(=O)NC1=CC(=O)C2OC2C1O (racemic) [Example 31, (±)-N-(2-hydroxy-5-oxo-7-oxabicyclo[4.1.0]hept-3-en-3-yl)-3-methoxyquinoline-2-carboxamide]
11 | – | – | – | – | – | 148 | 50 | 0.44 | 5.3 | 3.1 | 81 | – | – | – | COc1nc2ccccc2cc1C(=O)NC1=CC(=O)C2OC2C1=O (racemic) [Example 35, (±)-N-(2,5-dioxo-7-oxabicyclo[4.1.0]hept-3-en-3-yl)-2-methoxyquinoline-3-carboxamide]
12 | – | – | – | – | – | – | 30 | 0.71 | 6.7 | 9.7 | – | – | – | – | O=C(NC1=CC(=O)C2OC2C1O)c1nc(Cl)c2ccccc2c1O (racemic) [Example 27, (±)-1-chloro-4-hydroxy-isoquinoline-3-carboxylic acid (2-hydroxy-5-oxo-7-oxa-bicyclo[4.1.0]hept-3-en-3-yl)-amide]

Reference: patent US8629164B2, “Inhibitors of NF-κB” (Profectus Biosciences, Inc., priority 2009, dated 2014)
